Where two headings read alike, the source gives them in different places.
Experiment: Potentiometric titration, first pKa
Type: physicochemical
Method: In order to investigate the relationship between coating pH and deprotonation, coating precursor molecules were studied via potentiometric titrations. A solution of tannic acid was made by dissolving ˜1 mg in 2 mL of 100 mM KCl in a glass test tube to perform the titration. The TA and KOH solutions were degassed by aggressively sparging argon for no less than 30 min. Base was titrated in 1.0 μL increments, and the total amount added was 250 μL. If oxygen is purged correctly, the phenolic solution should display little or no change in color throughout the titration. The first pKa was calculated by initially plotting the volume of base added versus pH. The first derivative of this curve was then plotted as a function of pH, and the pKa was calculated by determining the pH associated with any local maxima.

[1] = aqueous 100 mM KCl solution, 100 mM KCl, degassed, KOH titration, read-out: First pKa
[2] = first pKa minus optimal coating pH

pKa [1]	pKa − pH [2]	pKa	pKa − pH	First pKa (100 mM KCl, degassed, KOH titration)	Compound
9.3			2.3		Oc1cccc(O)c1O [PG, 1,2,3-trihydroxybenzene]
		7.7	0.7		O=C(OC[C@H]1O[C@@H](OC(=O)c2cc(O)c(O)c(OC(=O)c3cc(O)c(O)c(O)c3)c2)[C@H](OC(=O)c2cc(O)c(O)c(OC(=O)c3cc(O)c(O)c(O)c3)c2)[C@@H](OC(=O)c2cc(O)c(O)c(OC(=O)c3cc(O)c(O)c(O)c3)c2)[C@@H]1OC(=O)c1cc(O)c(O)c(OC(=O)c2cc(O)c(O)c(O)c2)c1)c1cc(O)c(O)c(OC(=O)c2cc(O)c(O)c(O)c2)c1 [Tannic acid, tannic acid]

Second part, the compound before the results:

Compound	pKa [1]	pKa − pH [2]	pKa	pKa − pH	First pKa (100 mM KCl, degassed, KOH titration)
Oc1ccccc1O [Catechol, catechol]	9.5	1.5			
Oc1ccc(O)c(O)c1 [HHQ, hydroxyhydroquinone]			9.1	3.1	
epigallocatechin-3-gallate [EGCG]		1.1			8.1

Reference: patent US10265275B2, “Phenolic coatings and methods of making and using same” (Northwestern University, priority 2013, dated 2019)
